Measurements: PMC2996141 (Journal of chemical information and modeling, 2010)
“Also recorded” adds a separate entry of the source. Like-named read-outs stand apart in the source and are kept apart here.

Columns and labels:
[1] = target: T1, tubulin polymer (microtubules) (Bos taurus, UniProt Q6B856); assay: Binding of [^3H]peloruside A to preformed tubulin polymer, Scatchard analysis; set-up: species or system Bovine
[2] = system: microtubules (taxoid site); assay: Inhibition of [^3H]paclitaxel binding to microtubules; set-up: species or system Bovine; details: for % inhibition ± SD, radiolabeled ligand [^3H]paclitaxel: 2.0 µM tubulin as microtubules, radiolabeled ligand 4.0 µM, inhibitor 20 µM
[3] = target: microtubules (laulimalide/peloruside A site) (Bos taurus, UniProt Q6B856); assay: Inhibition of [^3H]peloruside A binding to microtubules; set-up: species or system Bovine; details: for % inhibition ± SD, radiolabeled ligand [^3H]peloruside A: 2.0 µM tubulin as microtubules, radiolabeled ligand 4.0 µM, inhibitor 20 µM; for type of inhibition of [^3H]peloruside A binding: Hanes analysis; for Ki: read-out: apparent Ki, inhibition of [^3H]peloruside A binding, Dixon analysis, competitive; for inhibition at 20 µM: read-out: % inhibition ± SD, radiolabeled ligand [^3H]peloruside A
[4] = target: T1, tubulin polymer (microtubules); assay: Binding of [^3H]paclitaxel to preformed tubulin polymer, Scatchard analysis; set-up: species or system Bovine
[5] = system: cell growth; details: cited from earlier work

Sequence of microtubules (laulimalide/peloruside A site) (Q6B856 whole entry): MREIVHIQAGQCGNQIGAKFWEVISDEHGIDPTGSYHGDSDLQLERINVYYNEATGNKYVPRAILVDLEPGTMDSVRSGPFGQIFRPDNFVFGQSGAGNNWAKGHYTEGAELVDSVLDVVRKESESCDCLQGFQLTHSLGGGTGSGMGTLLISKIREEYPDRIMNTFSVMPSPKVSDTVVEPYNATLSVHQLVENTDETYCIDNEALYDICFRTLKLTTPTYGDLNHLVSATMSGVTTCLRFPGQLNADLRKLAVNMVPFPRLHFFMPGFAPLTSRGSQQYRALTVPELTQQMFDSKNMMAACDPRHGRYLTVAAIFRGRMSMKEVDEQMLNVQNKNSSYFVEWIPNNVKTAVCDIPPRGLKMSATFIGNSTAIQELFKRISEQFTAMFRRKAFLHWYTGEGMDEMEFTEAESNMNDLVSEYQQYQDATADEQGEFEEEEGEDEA
Sequence of microtubules (laulimalide/peloruside A site) (P81947 whole entry partner): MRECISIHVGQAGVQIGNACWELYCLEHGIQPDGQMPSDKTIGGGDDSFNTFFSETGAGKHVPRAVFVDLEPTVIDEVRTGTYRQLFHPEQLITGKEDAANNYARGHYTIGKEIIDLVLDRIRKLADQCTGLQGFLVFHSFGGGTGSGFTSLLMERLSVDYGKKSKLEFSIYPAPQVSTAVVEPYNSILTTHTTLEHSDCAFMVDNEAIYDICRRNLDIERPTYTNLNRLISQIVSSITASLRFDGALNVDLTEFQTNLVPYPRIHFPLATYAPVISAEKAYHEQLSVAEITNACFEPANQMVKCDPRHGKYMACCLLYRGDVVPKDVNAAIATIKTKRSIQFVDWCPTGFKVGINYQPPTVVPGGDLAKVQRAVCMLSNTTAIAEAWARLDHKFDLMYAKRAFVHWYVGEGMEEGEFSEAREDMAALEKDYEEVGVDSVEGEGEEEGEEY
T1 sequence (Q6B856 whole entry): as the sequence (Q6B856 whole entry) above
T1 sequence (P81947 whole entry partner): as the sequence (P81947 whole entry partner) above

Compound	% inhibition ± SD, radiolabeled ligand [^3H]paclitaxel [2] [%]	ability to inhibit [^3H]peloruside A binding (words) [3]	ability to inhibit [^3H]paclitaxel binding [2]	inhibition at 20 µM [3] [%]	other results
CC[C@@H](/C=C(/C)[C@H]1C[C@H](OC)C[C@@H](O)C(C)(C)[C@]2(O)O[C@H](C[C@H](OC)[C@@H](O)C(=O)O1)C[C@H](OC)[C@@H]2O)CO [peloruside A]	5.1 ± 6				number of binding sites per tubulin αβ-dimer in microtubules [1]: one binding site
(11-R)-peloruside A	0 ± 8	inhibitory	essentially inactive		% inhibition ± SD, radiolabeled ligand [^3H]peloruside A [3]: 49 ± 1%; type of inhibition of [^3H]peloruside A binding [3]: competitive inhibitors; Ki [3]: 9300 nM
C=C/C=C\[C@H](C)[C@H](OC(N)=O)[C@@H](C)[C@H](O)[C@@H](C)C/C(C)=C\[C@H](C)[C@@H](O)[C@@H](C)/C=C\[C@@H](O)C[C@@H]1OC(=O)[C@H](C)[C@@H](O)[C@H]1C [discodermolide]	87 ± 2	essentially no ability to inhibit; also recorded: little activity	strong inhibitors	5 ± 2	
C/C(=C\c1csc(C)n1)[C@@H]1C[C@@H]2O[C@]2(C)CCC[C@H](C)[C@H](O)[C@@H](C)C(=O)C(C)(C)[C@@H](O)CC(=O)O1 [epothilone B]	79 ± 5	essentially no ability to inhibit; also recorded: little activity	strong inhibitors	2.2 ± 5	
CC(=O)O[C@H]1C(=O)[C@@]2(C)[C@H]([C@H](OC(=O)c3ccccc3)[C@]3(O)C[C@H](OC(=O)[C@H](O)[C@@H](NC(=O)c4ccccc4)c4ccccc4)C(C)=C1C3(C)C)[C@]1(OC(C)=O)CO[C@@H]1C[C@@H]2O [paclitaxel]		little activity		6.8 ± 0.5	Kd [4]: 240 nM; ability to inhibit [^3H]peloruside A binding (words) ([3]; listed as Paclitaxel): essentially no ability to inhibit
CC[C@H](/C=C(/C)[C@@H]1C[C@@H](OC)C[C@H](O)C(C)(C)[C@@]2(O)O[C@@H](C[C@@H](O)[C@H](O)C(=O)O1)C[C@@H](OC)[C@H]2O)CO [peloruside B]					cytotoxicity relative to peloruside A [5]: about three-fold less cytotoxic
C=C1C[C@H](C)C[C@@H]2CC=C[C@@H](C/C=C\C(=O)O[C@H]([C@@H](O)/C=C/[C@@H]3CC(C)=CCO3)C[C@@H]3O[C@H]3[C@@H](O)C1)O2 [laulimalide]	1.7 ± 5	inhibitory; also recorded: potent competitive inhibitor	essentially inactive		% inhibition ± SD, radiolabeled ligand [^3H]peloruside A [3]: 90 ± 0.1%; type of inhibition of [^3H]peloruside A binding [3]: competitive inhibitor; Ki [3]: 250 nM
C=C1C[C@H](C)C[C@@H]2CC=C[C@@H](C/C=C\C(=O)O[C@@H](/C=C/[C@@H]3CC(C)=CCO3)[C@@H](O)C[C@@H]3O[C@H]3[C@@H](O)C1)O2 [compound 13, neolaulimalide]					activity in cells and with tubulin relative to laulimalide ([5]; ref Gollner et al. 41): equivalent to that of laulimalide
